Data reported in publication PMC7425579 (Journal of medicinal chemistry, 2020).

Legend:
HIV-1LAI = assay: Antiviral assay in MT-2 human T-lymphoid cells exposed to HIV-1LAI; assay type: cell-based; details: MT-2 cells
[1] = tested on: highly drug-resistant HIV-1 variants; assay: Antiviral activity against the panel of highly drug-resistant HIV-1 variants; assay type: cell-based; details: for ability to block replication of highly PI-resistant HIV-1 variants (in words): panel of Table 3
HIV-1 protease = HIV-1 protease (Human immunodeficiency virus type 1 group M subtype B, UniProt P04585); assay: HIV-1 protease inhibition assay; assay type: biochemical; details: compared to 5b with the enantiomeric P2 ligand
HIV-1ATV-5 μM = assay type: cell-based; details: MT-4 cells
HIV-1DRV^RP30 = assay type: cell-based; details: HIV-1DRV^RP30, MT-4 cells

CC(C)CN(C[C@@H](O)[C@H](Cc1cc(F)cc(F)c1)NC(=O)O[C@H]1C[C@H]2CO[C@H]3OC1C[C@@H]23)S(=O)(=O)c1ccc2nc(NC3CC3)sc2c1 [inhibitor 5d, (1S,3aR,5S,7aS)-Octahydro-1,6-epoxyisobenzofuran-5-yl((2S,3R)-4-((2-(Cyclopropylamino)-N-isobutylbenzo[d]-thiazole)-6-sulfonamido)-1-(3,5-difluorophenyl)-3-hydroxy-butan-2-yl)carbamate]
fold reduction of antiviral activity compared to inhibitor 4d (HIV-1LAI): ~25 fold

CC(C)CN(C[C@@H](O)[C@H](Cc1ccccc1)NC(=O)O[C@H]1C[C@H]2CO[C@H]3OC1C[C@@H]23)S(=O)(=O)c1ccc2nc(NC(C)C)oc2c1 [inhibitor 5c, (1S,3aR,5S,7aS)-Octahydro-1,6-epoxyisobenzofuran-5-yl((2S,3R)-3-Hydroxy-4-((N-isobutyl-2-(isopropylamino)benzo-[d]oxazole)-6-sulfonamido)-1-phenylbutan-2-yl)carbamate]
fold improvement of antiviral activity compared to inhibitor 4c (HIV-1LAI): over 5 fold
ability to block replication of highly PI-resistant HIV-1 variants (in words) [1]: failed to block replication

CC(C)CN(C[C@@H](O)[C@H](Cc1ccc(F)cc1)NC(=O)OC1C[C@@H]2CO[C@@H]3OC1C[C@H]23)S(=O)(=O)c1ccc2nc(NC3CC3)sc2c1 (stereo partly drawn) [inhibitor 4f, (1R,3aS,7aR)-Octahydro-1,6-epoxyisobenzofuran-5-yl((2S,3R)-4-((2-(Cyclopropylamino)-N-isobutylbenzo[d]-thiazole)-6-sulfonamido)-1-(4-fluorophenyl)-3-hydroxybutan-2-yl)carbamate]
fold improvement of antiviral activity compared to inhibitor 4b (HIV-1LAI): over 7 fold

CC(C)CN(C[C@@H](O)[C@H](Cc1ccccc1)NC(=O)OC1C[C@@H]2CO[C@@H]3OC1C[C@H]23)S(=O)(=O)c1ccc2nc(NC3CC3)sc2c1 (stereo partly drawn) [inhibitor 4b, (1R,3aS,7aR)-Octahydro-1,6-epoxyisobenzofuran-5-yl((2S,3R)-4-((2-(Cyclopropylamino)-N-isobutylbenzo[d]-thiazole)-6-sulfonamido)-3-hydroxy-1-phenylbutan-2-yl)-carbamate]
fold better enzyme Ki than inhibitor 5b (HIV-1 protease): ~10 fold

CC(C)CN(C[C@@H](O)[C@H](Cc1ccc(F)cc1)NC(=O)O[C@H]1C[C@H]2CO[C@H]3OC1C[C@@H]23)S(=O)(=O)c1ccc2nc(NC3CC3)sc2c1 [inhibitor 5f, (1S,3aR,5S,7aS)-Octahydro-1,6-epoxyisobenzofuran-5-yl((2S,3R)-4-((2-(Cyclopropylamino)-N-isobutylbenzo[d]-thiazole)-6-sulfonamido)-1-(4-fluorophenyl)-3-hydroxybutan-2-yl)carbamate]
fold improvement of antiviral activity compared to inhibitor 5b (HIV-1LAI): over 4 fold

CC(C)CN(C[C@@H](O)[C@H](Cc1cc(F)cc(F)c1)NC(=O)OC1C[C@@H]2CO[C@@H]3OC1C[C@H]23)S(=O)(=O)c1ccc2nc(NC3CC3)sc2c1 (stereo partly drawn) [inhibitor 4d, (1R,3aS,7aR)-Octahydro-1,6-epoxyisobenzofuran-5-yl((2S,3R)-4-((2-(Cyclopropylamino)-N-isobutylbenzo[d]-thiazole)-6-sulfonamido)-1-(3,5-difluorophenyl)-3-hydroxybutan-2-yl)carbamate]
IC50 ([1]; Human immunodeficiency virus 1, read-out: antiviral activity against highly drug-resistant HIV-1 variants): 0.21 to 4.5 nM

COC(=O)N[C@H](C(=O)N[C@@H](Cc1ccccc1)[C@@H](O)CN(Cc1ccc(-c2ccccn2)cc1)NC(=O)[C@@H](NC(=O)OC)C(C)(C)C)C(C)(C)C [ATV, atazanavir]
fold-change in IC50 compared to wild-type HIV-1NL4-3 (HIV-1ATV-5 μM): > 250 fold
fold-change in IC50 compared to wild-type HIV-1NL4-3 (HIV-1DRV^RP30): > 250 fold
ability to block replication of highly PI-resistant HIV-1 variants (in words) [1]: unable to suppress the replication
